The IC50 is the midpoint of a concentration-inhibition curve. As usually defined, the IC90 is the concentration at which the effect reaches the 90% level.

Each structure is given as a SMILES string. Values after ≈ are worked out from the molar mass of the structure shown.

In one assay the test system is PANC-1 (pancreatic cancer) cells. In words: MTT cell growth inhibition, solid tumor cells. In kind it is cell-based, human. Particulars: Homo sapiens; PANC-1, 72 h, MTT; read-out: IC50. In a few lines: (§1)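 Human tumor cells seeded at 6000 per well grow 24 h in serum-supplemented (10% FBS) high-glucose DMEM. A 72 h incubation with graded compound doses at 37 °C follows, and MTT reports viable cell number.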
Consider `COc1ccc2cc1Oc1ccc(cc1)C[C@H]1c3cc(c(OC)cc3CCN1C)Oc1c(OC(=O)C3CC3)c(OC)cc3c1[C@H](C2)N(C)CC3` [BS-FC-304], for which the IC50 came out at 3.73 µg/mL (≈ 5.51 µM).

Still in this assay, the particulars now being: Homo sapiens; PANC-1, 72 h, MTT; read-out: IC90.
As for `COc1ccc2cc1Oc1ccc(cc1)C[C@H]1c3cc(c(OC)cc3CCN1C)Oc1c(OC(=O)C3CC3)c(OC)cc3c1[C@H](C2)N(C)CC3` [BS-FC-304], the IC90 was 10.4 µg/mL (≈ 15.4 µM).

A further assay deals with PC-3 (prostate cancer) cells. The experiment in a line: MTT cell growth inhibition, solid tumor cells. In kind it is cell-based, human. The settings on record: Homo sapiens; PC-3, 72 h, MTT; read-out: IC50. The method, boiled down: as §1
Consider `COc1ccc2cc1Oc1ccc(cc1)C[C@H]1c3cc(c(OC)cc3CCN1C)Oc1c(OC(=O)C3CC3)c(OC)cc3c1[C@H](C2)N(C)CC3` [BS-FC-304], for which the IC50 came out at 4.02 µg/mL (≈ 5.94 µM).

The same assay, now with this note: Homo sapiens; PC-3, 72 h, MTT; read-out: IC90.
For the molecule `COc1ccc2cc1Oc1ccc(cc1)C[C@H]1c3cc(c(OC)cc3CCN1C)Oc1c(OC(=O)C3CC3)c(OC)cc3c1[C@H](C2)N(C)CC3` [BS-FC-304], the IC90 was found to be 10.5 µg/mL (≈ 15.5 µM).

For a further assay, the system named is SK-OV-3 (ovarian cancer) cells. The experiment in a line: MTT cell growth inhibition, solid tumor cells. It is filed as cell-based, human. Particulars: Homo sapiens; SK-OV-3, 72 h, MTT; read-out: IC50. In a few lines:
as §1
Consider `COc1ccc2cc1Oc1ccc(cc1)C[C@H]1c3cc(c(OC)cc3CCN1C)Oc1c(OC(=O)C3CC3)c(OC)cc3c1[C@H](C2)N(C)CC3` [BS-FC-304], for which the IC50 was 6.45 µg/mL (≈ 9.53 µM).

Still in this assay, the particulars now being: Homo sapiens; SK-OV-3, 72 h, MTT; read-out: IC90.
As for `COc1ccc2cc1Oc1ccc(cc1)C[C@H]1c3cc(c(OC)cc3CCN1C)Oc1c(OC(=O)C3CC3)c(OC)cc3c1[C@H](C2)N(C)CC3` [BS-FC-304], the IC90 was 15.4 µg/mL (≈ 22.7 µM).

The next assay deals with CaEs-17 (esophageal cancer) cells. The experiment in a line: MTT cell growth inhibition, solid tumor cells. In kind it is cell-based, human. The settings on record: Homo sapiens, CaEs17; CaEs-17, 72 h, MTT; read-out: IC50. In a few lines:
as §1
As for `COc1ccc2cc1Oc1ccc(cc1)C[C@H]1c3cc(c(OC)cc3CCN1C)Oc1c(OC(=O)C3CC3)c(OC)cc3c1[C@H](C2)N(C)CC3` [BS-FC-304], the concentration for half-maximal inhibition (IC50) was determined as 2.35 µg/mL (≈ 3.47 µM).

Still in this assay, the particulars now being: Homo sapiens, CaEs17; CaEs-17, 72 h, MTT; read-out: IC90.
For `COc1ccc2cc1Oc1ccc(cc1)C[C@H]1c3cc(c(OC)cc3CCN1C)Oc1c(OC(=O)C3CC3)c(OC)cc3c1[C@H](C2)N(C)CC3` [BS-FC-304], the IC90 stood at 10.7 µg/mL (≈ 15.8 µM).

Another assay has as its system CNE (nasopharyngeal carcinoma) cells. The experiment in a line: MTT cell growth inhibition, solid tumor cells. It is filed as cell-based, human. The settings on record: Homo sapiens; CNE, 72 h, MTT; read-out: IC50. In a few lines: as §1
With `COc1ccc2cc1Oc1ccc(cc1)C[C@H]1c3cc(c(OC)cc3CCN1C)Oc1c(OC(=O)C3CC3)c(OC)cc3c1[C@H](C2)N(C)CC3` [BS-FC-304], the half-inhibitory concentration (IC50) was 3.8 µg/mL (≈ 5.61 µM).

The assay is the same for the next values; noted with them: Homo sapiens; CNE, 72 h, MTT; read-out: IC90.
For `COc1ccc2cc1Oc1ccc(cc1)C[C@H]1c3cc(c(OC)cc3CCN1C)Oc1c(OC(=O)C3CC3)c(OC)cc3c1[C@H](C2)N(C)CC3` [BS-FC-304], the IC90 is 7.2 µg/mL (≈ 10.6 µM).

For a further assay, the system named is RPMI 8226 (multiple myeloma) cells. The experiment in a line: MTT cell growth inhibition, multiple myeloma cells. The settings on record: Homo sapiens; RPMI 8226, 72 h, MTT; read-out: IC50. In kind it is cell-based, human. In a few lines:
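RPMI 8226 myeloma cells, 6000 per well in RPMI-1640 with 10% FBS, were dosed with fangchinoline derivatives at several concentrations the day after seeding. Incubation ran 72 h at 37° C in 5% CO2, then viable cells were measured by MTT.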
With `COc1ccc2cc1Oc1ccc(cc1)C[C@H]1c3cc(c(OC)cc3CCN1C)Oc1c(OC(=O)C3CC3)c(OC)cc3c1[C@H](C2)N(C)CC3` [BS-FC-304], the IC50 is 0.16 µg/mL (≈ 0.236 µM).

Staying with this assay, now noted: Homo sapiens; RPMI 8226, 72 h, MTT; read-out: IC90.
Turning to `COc1ccc2cc1Oc1ccc(cc1)C[C@H]1c3cc(c(OC)cc3CCN1C)Oc1c(OC(=O)C3CC3)c(OC)cc3c1[C@H](C2)N(C)CC3` [BS-FC-304], the IC90 turned out to be 0.98 µg/mL (≈ 1.45 µM).

The next assay deals with Kasumi-1 (acute myeloid leukemia M2 type) cells. In words: MTT cell growth inhibition, leukemia cells. It is filed as cell-based, human. Particulars: Homo sapiens; Kasumi-1, 72 h, MTT; read-out: IC50. In a few lines: (§2)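 MTT read-out of viable cells after 72 h compound exposure at 37° C., 5% CO2; 6000 cells/well in RPMI-1640 + 10% FBS, dosed one day after seeding over a range of concentrations.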
Consider `COc1ccc2cc1Oc1ccc(cc1)C[C@H]1c3cc(c(OC)cc3CCN1C)Oc1c(OC(=O)C3CC3)c(OC)cc3c1[C@H](C2)N(C)CC3` [BS-FC-304], for which the IC50 amounted to 1.54 µg/mL (≈ 2.28 µM).

Staying with this assay, now noted: Homo sapiens; Kasumi-1, 72 h, MTT; read-out: IC90.
Turning to `COc1ccc2cc1Oc1ccc(cc1)C[C@H]1c3cc(c(OC)cc3CCN1C)Oc1c(OC(=O)C3CC3)c(OC)cc3c1[C@H](C2)N(C)CC3` [BS-FC-304], the IC90 stood at 3.94 µg/mL (≈ 5.82 µM).

The next assay relates to H9 (acute lymphoblastic leukemia) cells. The experiment in a line: MTT cell growth inhibition, leukemia cells. In kind it is cell-based, human. Particulars: Homo sapiens; H9, 72 h, MTT; read-out: IC50. In a few lines:
as §2
Turning to `COc1ccc2cc1Oc1ccc(cc1)C[C@H]1c3cc(c(OC)cc3CCN1C)Oc1c(OC(=O)C3CC3)c(OC)cc3c1[C@H](C2)N(C)CC3` [BS-FC-304], the IC50 came out at 3.6 µg/mL (≈ 5.32 µM).

The same assay, now with this note: Homo sapiens; H9, 72 h, MTT; read-out: IC90.
In the case of `COc1ccc2cc1Oc1ccc(cc1)C[C@H]1c3cc(c(OC)cc3CCN1C)Oc1c(OC(=O)C3CC3)c(OC)cc3c1[C@H](C2)N(C)CC3` [BS-FC-304], the IC90 came to 7.05 µg/mL (≈ 10.4 µM).

The next assay concerns Jurkat (acute lymphoblastic leukemia) cells. In words: MTT cell growth inhibition, leukemia cells. Particulars: Homo sapiens; Jurkat, 72 h, MTT; read-out: IC50. It is filed as cell-based, human. In a few lines:
as §2
In the case of `COc1ccc2cc1Oc1ccc(cc1)C[C@H]1c3cc(c(OC)cc3CCN1C)Oc1c(OC(=O)C3CC3)c(OC)cc3c1[C@H](C2)N(C)CC3` [BS-FC-304], the IC50 was determined as 0.81 µg/mL (≈ 1.2 µM).

The same assay, now with this note: Homo sapiens; Jurkat, 72 h, MTT; read-out: IC90.
With `COc1ccc2cc1Oc1ccc(cc1)C[C@H]1c3cc(c(OC)cc3CCN1C)Oc1c(OC(=O)C3CC3)c(OC)cc3c1[C@H](C2)N(C)CC3` [BS-FC-304], the IC90 is 2.94 µg/mL (≈ 4.34 µM).

These data come from US9328122B2, “7-substituted Hanfangichin B derivative, and preparation method and use thereof” (HANGZHOU BENSHENG PHARMACEUTICAL CO., LTD., priority 2012, dated 2016).
